Laboratory results as given in ChEMBL document CHEMBL1201862, “PubChem BioAssay data set” (2004).
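Cells were grown in 96-well plates and exposed to each compound for 48 hours at five concentrations; endpoints were interpolated linearly between bracketing concentrations, or set to the highest concentration if not reached. GI50 = concentration required for 50% inhibition of growth.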 The source made the active and inactive calls. Cut-off read from the data, not from the text of the source: active = GI50 up to about 1.1 µM and inactive = higher.

Assays:
Experiment in all cases: NCI-60 cell line screen, 48 h
SF-268 = tested on: SF-268
OVCAR-8 = tested on: OVCAR-8
SW-620 = tested on: SW-620
786-0 = tested on: 786-0
NCI-H460 = tested on: NCI-H460
IGROV-1 = tested on: IGROV-1
NCI-H226 = tested on: NCI-H226
HCT-116 = tested on: HCT-116
CAKI-1 = tested on: CAKI-1
HCT-15 = tested on: HCT-15
Malme-3M = tested on: Malme-3M
SK-MEL-2 = tested on: SK-MEL-2
TK-10 = tested on: TK-10
SF-539 = tested on: SF-539
RXF 393 = tested on: RXF 393

Structure (SMILES)	GI50 (SF-268)	GI50 (OVCAR-8)	GI50 (SW-620)	GI50 (786-0)	GI50 (NCI-H460)	GI50 (IGROV-1)	GI50 (NCI-H226)	GI50 (HCT-116)	GI50 (CAKI-1)	GI50 (HCT-15)	GI50 (Malme-3M)	GI50 (SK-MEL-2)	GI50 (TK-10)	GI50 (SF-539)	GI50 (RXF 393)
C=CCOC(=O)C1CCC(=O)N1C(=O)C(Cl)Cl (centres undefined)	> 100 µM (inactive)	> 100 µM (inactive)	> 100 µM (inactive)	> 100 µM (inactive)	> 100 µM (inactive)	> 100 µM (inactive)	> 100 µM (inactive)	> 100 µM (inactive)	> 100 µM (inactive)	> 100 µM	> 100 µM (inactive)	> 100 µM (inactive)	> 100 µM (inactive)		
C/N=C1\CC2c3cc(OC)c(OC)cc3CCN2C2=C1C(=O)CC(C)(C)C2 (centres undefined)	> 100 µM (inactive)	> 100 µM (inactive)	> 100 µM (inactive)	> 100 µM (inactive)	> 100 µM (inactive)		> 100 µM (inactive)	> 100 µM (inactive)	> 100 µM (inactive)	> 10 µM	> 100 µM (inactive)	> 100 µM (inactive)	> 100 µM (inactive)	> 100 µM (inactive)	> 100 µM (inactive)
C=CCc1cc(OC)c2c(c1)C(OC)CC(c1ccc(OC)c(OC)c1)O2 (centres undefined)	73.8 µM (inactive)	> 100 µM (inactive)	> 100 µM (inactive)	> 100 µM (inactive)	> 100 µM (inactive)	> 100 µM (inactive)		> 100 µM (inactive)	94.8 µM (inactive)	61.5 µM	55.1 µM (inactive)	> 100 µM (inactive)	> 100 µM (inactive)	> 100 µM (inactive)	
N#Cc1ccccc1NC(=O)C(=O)C1NC(=S)NC1=O (centres undefined)	> 100 µM (inactive)	> 100 µM (inactive)	> 100 µM (inactive)	> 100 µM (inactive)	> 100 µM (inactive)	> 100 µM (inactive)	> 100 µM (inactive)	> 100 µM (inactive)	> 100 µM (inactive)	> 100 µM	> 100 µM (inactive)		> 100 µM (inactive)	> 100 µM (inactive)	> 100 µM (inactive)
CC1=NOC(=O)/C1=C/c1ccccc1O	> 100 µM (inactive)	> 100 µM (inactive)	20.4 µM (inactive)	> 100 µM (inactive)	> 100 µM (inactive)	> 100 µM (inactive)	> 100 µM (inactive)	> 100 µM (inactive)	> 100 µM (inactive)	> 100 µM	> 100 µM (inactive)	> 100 µM (inactive)	> 100 µM (inactive)	> 100 µM (inactive)	
CC1(C)CC(=O)c2c(oc3cc(O)c(O)cc23)C1	24.3 µM (inactive)	19.2 µM (inactive)	19.1 µM (inactive)	26.3 µM (inactive)	32 µM (inactive)	40.2 µM (inactive)		> 10 µM (inactive)	25.8 µM (inactive)	25.4 µM	32.7 µM (inactive)	26.7 µM (inactive)	> 100 µM (inactive)	28.6 µM (inactive)	29.4 µM (inactive)
COC(=O)Nc1nc2cc(Br)ccc2[nH]1	> 100 µM (inactive)	32.6 µM (inactive)	37 µM (inactive)	53.2 µM (inactive)	24.9 µM (inactive)	35.9 µM (inactive)	> 100 µM (inactive)	57 µM (inactive)		8.34 µM	37.1 µM (inactive)	16.1 µM (inactive)	58.7 µM (inactive)	22.6 µM (inactive)	25.8 µM (inactive)
Cc1ccn2c(c1)nc1nc3ccccc3nc12	> 100 µM (inactive)	> 100 µM (inactive)	> 100 µM (inactive)	> 100 µM (inactive)	> 100 µM (inactive)	> 100 µM (inactive)	> 100 µM (inactive)		> 100 µM (inactive)	> 100 µM		> 100 µM (inactive)	> 100 µM (inactive)	> 100 µM (inactive)	> 100 µM (inactive)
